# Patent US20240269139A1, “COMPOUNDS FOR TARGETED PROTEIN DEGRADATION OF KINASES” (DANA-FARBER CANCER INSTITUTE, INC., priority 2020, published 2024)
# Like-named read-outs stand apart in the source and are kept apart here.
# Key:
# Format in all cases: cell-based
# [1] = target: protein kinases (human kinome) (Homo sapiens, UniProt Q9BZX2); details: protein UCK2 (Q9BZX2-1); experiment wp160, 8 hr; down
# [2] = target: protein kinases (human kinome) (Homo sapiens, UniProt Q14680); details: experiment wp131
# [3] = target: T1, protein kinases (human kinome) (Homo sapiens, UniProt O43318); details: MAP3K7 (O43318)
# T1 sequence (O43318 1-606): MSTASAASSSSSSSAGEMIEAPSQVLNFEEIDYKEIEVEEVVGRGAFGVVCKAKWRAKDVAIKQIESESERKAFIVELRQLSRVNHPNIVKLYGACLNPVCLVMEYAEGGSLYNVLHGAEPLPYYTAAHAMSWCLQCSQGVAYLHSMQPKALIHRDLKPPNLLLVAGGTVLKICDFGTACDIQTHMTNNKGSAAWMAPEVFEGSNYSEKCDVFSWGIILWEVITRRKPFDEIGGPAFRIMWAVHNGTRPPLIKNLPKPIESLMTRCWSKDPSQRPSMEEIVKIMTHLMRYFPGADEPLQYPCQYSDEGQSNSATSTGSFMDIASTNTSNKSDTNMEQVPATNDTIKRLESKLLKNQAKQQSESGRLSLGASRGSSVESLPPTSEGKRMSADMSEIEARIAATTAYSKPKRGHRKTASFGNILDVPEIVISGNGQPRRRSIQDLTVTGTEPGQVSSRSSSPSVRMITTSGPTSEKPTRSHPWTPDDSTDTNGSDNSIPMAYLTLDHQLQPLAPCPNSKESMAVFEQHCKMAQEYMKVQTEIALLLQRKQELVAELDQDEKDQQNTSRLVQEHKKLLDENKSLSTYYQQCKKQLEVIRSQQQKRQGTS
# [4] = target: protein kinases (human kinome) (Homo sapiens, UniProt P29317); details: for logFC: EPHA2 (P29317)
# [5] = target: T2, protein kinases (human kinome) (Homo sapiens, UniProt Q9H2K8); details: for logFC: TAOK3 (Q9H2K8); for logFC TAOK3 (Q9H2K8): direction of change down
# T2 sequence (Q9H2K8 1-898): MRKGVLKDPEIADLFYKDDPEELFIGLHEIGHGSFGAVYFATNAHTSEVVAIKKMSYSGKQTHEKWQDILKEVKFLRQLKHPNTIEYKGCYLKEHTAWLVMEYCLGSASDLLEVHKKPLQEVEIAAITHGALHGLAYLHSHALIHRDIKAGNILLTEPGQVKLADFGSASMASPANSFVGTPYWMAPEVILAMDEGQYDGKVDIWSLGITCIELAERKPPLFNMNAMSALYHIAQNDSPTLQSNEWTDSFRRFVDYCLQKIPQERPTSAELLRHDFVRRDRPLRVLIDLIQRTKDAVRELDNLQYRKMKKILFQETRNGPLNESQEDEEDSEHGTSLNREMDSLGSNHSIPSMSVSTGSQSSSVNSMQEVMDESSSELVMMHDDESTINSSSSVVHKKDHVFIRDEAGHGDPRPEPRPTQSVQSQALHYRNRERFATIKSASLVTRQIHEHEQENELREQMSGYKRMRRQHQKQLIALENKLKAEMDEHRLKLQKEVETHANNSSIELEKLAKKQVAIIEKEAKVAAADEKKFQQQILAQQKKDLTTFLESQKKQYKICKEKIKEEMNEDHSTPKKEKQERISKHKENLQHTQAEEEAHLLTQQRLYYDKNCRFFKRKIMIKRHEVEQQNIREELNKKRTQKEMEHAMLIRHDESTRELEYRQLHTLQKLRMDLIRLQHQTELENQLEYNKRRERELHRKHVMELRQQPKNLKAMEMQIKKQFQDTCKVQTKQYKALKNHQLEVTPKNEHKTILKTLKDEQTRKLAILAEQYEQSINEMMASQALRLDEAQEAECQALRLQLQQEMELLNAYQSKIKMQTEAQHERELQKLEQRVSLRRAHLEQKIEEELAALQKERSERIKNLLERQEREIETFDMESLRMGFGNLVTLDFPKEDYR
# [6] = target: protein kinases (human kinome) (Homo sapiens, UniProt Q86Z02); details: experiment wp133, 4 hr
# Chain of protein kinases (human kinome) (Homo sapiens, UniProt Q86Z02) (Q86Z02 whole entry): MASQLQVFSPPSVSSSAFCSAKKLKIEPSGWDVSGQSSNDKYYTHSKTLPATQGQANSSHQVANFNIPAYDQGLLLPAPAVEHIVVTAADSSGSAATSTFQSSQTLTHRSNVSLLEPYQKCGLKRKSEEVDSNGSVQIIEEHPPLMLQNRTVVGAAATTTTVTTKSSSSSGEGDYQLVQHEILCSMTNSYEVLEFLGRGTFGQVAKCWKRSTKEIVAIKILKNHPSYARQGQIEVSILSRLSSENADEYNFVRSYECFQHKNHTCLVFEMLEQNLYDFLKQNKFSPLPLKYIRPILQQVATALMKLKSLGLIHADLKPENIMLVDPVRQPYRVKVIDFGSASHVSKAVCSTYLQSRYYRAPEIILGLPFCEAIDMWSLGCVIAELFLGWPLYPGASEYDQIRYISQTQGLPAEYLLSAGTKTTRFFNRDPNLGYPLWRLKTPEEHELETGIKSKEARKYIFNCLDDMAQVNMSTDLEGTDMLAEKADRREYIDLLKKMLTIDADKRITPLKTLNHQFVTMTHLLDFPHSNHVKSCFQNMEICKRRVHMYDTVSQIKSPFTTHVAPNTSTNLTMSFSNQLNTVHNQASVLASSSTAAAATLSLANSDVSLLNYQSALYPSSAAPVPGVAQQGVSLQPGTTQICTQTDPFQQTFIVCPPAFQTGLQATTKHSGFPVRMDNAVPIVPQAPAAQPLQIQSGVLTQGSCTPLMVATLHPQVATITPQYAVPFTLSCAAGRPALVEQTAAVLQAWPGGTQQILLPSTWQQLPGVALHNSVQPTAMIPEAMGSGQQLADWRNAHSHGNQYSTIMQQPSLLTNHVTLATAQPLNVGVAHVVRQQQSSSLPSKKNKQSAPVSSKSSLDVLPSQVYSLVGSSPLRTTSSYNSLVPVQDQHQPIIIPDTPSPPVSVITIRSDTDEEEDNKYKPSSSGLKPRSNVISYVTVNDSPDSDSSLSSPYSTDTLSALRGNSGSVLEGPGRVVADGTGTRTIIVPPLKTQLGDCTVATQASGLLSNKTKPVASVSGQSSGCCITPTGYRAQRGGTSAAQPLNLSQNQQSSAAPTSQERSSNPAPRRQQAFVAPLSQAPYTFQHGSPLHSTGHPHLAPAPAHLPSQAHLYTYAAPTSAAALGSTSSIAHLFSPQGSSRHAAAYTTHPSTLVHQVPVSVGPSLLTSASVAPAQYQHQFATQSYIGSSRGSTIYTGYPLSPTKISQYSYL
# Chain of protein kinases (human kinome) (Homo sapiens, UniProt P29317) (P29317 24-976): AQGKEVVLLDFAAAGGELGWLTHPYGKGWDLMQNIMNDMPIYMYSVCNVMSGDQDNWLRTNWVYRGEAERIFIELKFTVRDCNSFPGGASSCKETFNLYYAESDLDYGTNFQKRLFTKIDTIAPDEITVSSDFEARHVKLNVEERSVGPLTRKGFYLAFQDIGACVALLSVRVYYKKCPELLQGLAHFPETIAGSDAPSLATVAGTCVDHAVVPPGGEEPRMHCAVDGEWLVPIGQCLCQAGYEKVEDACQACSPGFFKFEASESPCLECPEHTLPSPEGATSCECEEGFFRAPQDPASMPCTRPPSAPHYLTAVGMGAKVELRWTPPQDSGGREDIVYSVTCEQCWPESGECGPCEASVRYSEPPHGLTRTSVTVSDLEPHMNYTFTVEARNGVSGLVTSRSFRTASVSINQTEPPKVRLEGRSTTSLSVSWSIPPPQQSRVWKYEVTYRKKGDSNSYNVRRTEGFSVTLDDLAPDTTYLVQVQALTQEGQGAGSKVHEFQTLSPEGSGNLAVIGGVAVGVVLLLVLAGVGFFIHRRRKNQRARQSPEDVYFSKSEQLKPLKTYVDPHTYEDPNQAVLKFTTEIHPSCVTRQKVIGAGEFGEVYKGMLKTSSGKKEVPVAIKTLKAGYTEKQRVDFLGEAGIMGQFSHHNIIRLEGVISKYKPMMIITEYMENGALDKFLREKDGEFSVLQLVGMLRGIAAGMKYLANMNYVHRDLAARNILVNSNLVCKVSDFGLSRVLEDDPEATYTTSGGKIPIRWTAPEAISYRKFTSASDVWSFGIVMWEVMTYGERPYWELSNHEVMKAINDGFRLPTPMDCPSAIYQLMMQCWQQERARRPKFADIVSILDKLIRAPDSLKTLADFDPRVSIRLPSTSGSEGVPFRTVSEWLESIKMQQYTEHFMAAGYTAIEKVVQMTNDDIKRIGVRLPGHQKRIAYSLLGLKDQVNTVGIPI
# Chain of protein kinases (human kinome) (Homo sapiens, UniProt Q14680) (Q14680 whole entry): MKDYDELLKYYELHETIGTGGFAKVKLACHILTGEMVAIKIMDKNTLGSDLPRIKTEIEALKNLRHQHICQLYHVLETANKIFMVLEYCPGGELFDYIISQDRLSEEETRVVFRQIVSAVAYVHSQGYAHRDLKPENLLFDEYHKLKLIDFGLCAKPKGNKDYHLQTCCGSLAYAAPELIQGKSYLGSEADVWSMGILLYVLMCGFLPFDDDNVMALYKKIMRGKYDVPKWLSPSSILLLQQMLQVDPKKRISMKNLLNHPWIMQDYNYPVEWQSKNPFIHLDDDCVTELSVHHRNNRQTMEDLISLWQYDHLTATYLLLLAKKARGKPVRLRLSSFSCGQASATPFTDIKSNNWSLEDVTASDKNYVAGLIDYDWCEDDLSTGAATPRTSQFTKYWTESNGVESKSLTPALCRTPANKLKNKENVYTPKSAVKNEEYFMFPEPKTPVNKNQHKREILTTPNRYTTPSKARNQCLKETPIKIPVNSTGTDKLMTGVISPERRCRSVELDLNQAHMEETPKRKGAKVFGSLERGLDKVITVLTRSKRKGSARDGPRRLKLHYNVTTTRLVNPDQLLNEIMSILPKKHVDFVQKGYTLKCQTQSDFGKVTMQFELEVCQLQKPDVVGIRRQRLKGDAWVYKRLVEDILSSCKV
# Chain of protein kinases (human kinome) (Homo sapiens, UniProt Q9BZX2) (Q9BZX2 whole entry): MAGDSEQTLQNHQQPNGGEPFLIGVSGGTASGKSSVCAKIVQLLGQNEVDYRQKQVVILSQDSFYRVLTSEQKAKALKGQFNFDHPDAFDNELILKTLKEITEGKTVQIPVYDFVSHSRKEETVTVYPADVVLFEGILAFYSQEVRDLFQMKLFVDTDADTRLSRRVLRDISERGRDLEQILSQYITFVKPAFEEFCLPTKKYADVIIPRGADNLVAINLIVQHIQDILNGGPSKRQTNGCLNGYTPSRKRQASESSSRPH
structure (smiles),measurement,setting,value
"Cc1ccc(NC(=O)c2cccc(C(F)(F)F)c2)cc1N1Cc2cnc(Nc3ccc(N4CCN(Cc5cn(CCCCCOc6cccc7c6C(=O)N(C6CCC(=O)NC6=O)C7=O)nn5)CC4)nc3)nc2N(C)C1=O (centres unmarked) [DB0646, N-(3-(7-((6-(4-((1-(5-((2-(2,6-Dioxopiperidin-3-yl)-1,3-dioxoisoindolin-4-yl)oxy)pentyl)-1H-1,2,3-triazol-4-yl)methyl)piperazin-1-v)pyridin-3-yl)amino)-1-methyl-2-oxo-1,4-dihydropyrimido[4,5-d]pyrimidin-3(2H)-yl)-4-methylphenyl)-3-(trifluoromethyl)benzamide]",logFC UCK2,[1],−0.3246
Cc1ncsc1-c1ccc([C@H](C)NC(=O)[C@@H]2C[C@@H](O)CN2C(=O)[C@@H](NC(=O)CCOCCOCCN2CCN(c3ccc(Nc4ncc(Cl)c(Nc5ccccc5S(=O)(=O)C(C)C)n4)cc3)CC2)C(C)(C)C)cc1 [FMF.06.098.1],logFC MELK (Q14680),[2]; direction of change down,−0.38
same,logFC MELK,"[2]; protein MELK (Q14680), down",−0.38
Cc1ccc(C(=O)Nc2ccc(CN3CCN(CCCOCCOCCOCCNC(=O)COc4cccc5c4C(=O)N(C4CCC(=O)NC4=O)C5=O)CC3)c(C(F)(F)F)c2)cc1C#Cc1cnc2cccnn12 (centres unmarked) [SB1.G.187],logFC,[3]; experiment wp056,−1.003
same,logFC,"[3]; experiment wp056, direction down",−1.003
same,logFC,[3]; experiment wp103,−1.374
same,logFC,"[3]; experiment wp103, direction down",−1.374
same,logFC,[3]; experiment wp105,−1.031
same,logFC,"[3]; experiment wp105, direction down",−1.031
same,logFC,[3]; experiment wp107,−1.33
same,logFC,"[3]; experiment wp107, direction down",−1.33
same,logFC,[3]; experiment wp172,−0.5772
same,logFC,"[3]; experiment wp172, direction down",−0.5772
same,logFC,[4]; experiment wp114,−0.401
same,logFC,[4]; experiment wp172,−0.4107
same,logFC of EPHA2 (P29317),[4]; Experiment wp114,−0.401
same,logFC of EPHA2 (P29317),[4]; Experiment wp172,−0.4107
same,logFC,[5]; experiment wp103,−0.3727
same,logFC,[5]; experiment wp107,−0.3858
same,logFC TAOK3 (Q9H2K8),[5]; experiment wp103,−0.3727
same,logFC TAOK3 (Q9H2K8),[5]; experiment wp107,−0.3858
CC(C)S(=O)(=O)c1ccccc1Nc1nc(Nc2ccc(N3CCN(CCOCCNC(=O)CNc4cccc5c4C(=O)N(C4CCC(=O)NC4=O)C5=O)CC3)cc2)ncc1Cl (centres unmarked) [SK.3.91],logFC HIPK1 (Q86Z02),[6]; direction of change down,−0.4009
same,logFC HIPK1,"[6]; protein HIPK1 (Q86Z02), down",−0.4009
